Laboratory results taken from article PMC9632963, “Preclinical characterization and phase I clinical trial of CT053PTSA targets MET, AXL, and VEGFR2 in patients with advanced solid tumors” (Frontiers in Immunology, 2022).
Like-named read-outs stand apart in the source and are kept apart here.

What was measured:
[1] = biological target: C-KIT (Homo sapiens, UniProt P10721); test: Kinase inhibition assay (LANCE or HTRF); assay type: biochemical; conditions: ATP at Km
Description: (§4) The IC50 values were determined by measuring phosphorylation of peptide substrate poly at ATP concentrations at the Km.

[2] = biological target: ITK (Homo sapiens, UniProt Q08881); test: Kinase inhibition assay (LANCE or HTRF); assay type: biochemical; conditions: ATP at Km
Description: as §4

[3] = biological target: Fes (Homo sapiens, UniProt P07332); test: Kinase inhibition assay (LANCE or HTRF); assay type: biochemical; conditions: ATP at Km
Description: as §4

[4] = tested on: HUVECs; test: Endothelial cell tubule formation assay, HGF-induced; assay type: cell-based; conditions: Homo sapiens, HUVEC, HGF 45 ng/ml, 8 hours
Source text: Then, after staining with Calcein AM (ThermoFisher, CA, USA), images of tubule formation were captured, and the total tube area was quantified with ImageXpress HCS (Molecular Devices, CA, USA).

[5] = tested on: SNU-16; test: Cell proliferation assay (CellTiter-Glo, 72 hours); assay type: cell-based; conditions: Homo sapiens, read-out: IC50 anti-proliferative
Description: (§5) Human gastric tumor cell lines with high MET expression levels, namely, the GTL-16, MKN45, SNU638, Hs746T, SNU-620, and SNU-5 cell lines, were used in the assay. These cell lines were obtained from American Type Culture Collection (ATCC), Japanese Collection of Research Bioresources (JCRB), Shanghai Institutes of Biological Sciences, CAS (SIBS), Korean Cell Line Bank (KCLB) or National Institutes of Health (NIH). […] Cell viability was measured after 72 hours using a CellTiter-Glo Luminescent Cell Viability Assay Kit (Promega, WI, USA) according to the manufacturer’s instructions.

[6] = tested on: AGS; test: Cell proliferation assay (CellTiter-Glo, 72 hours); assay type: cell-based; conditions: Homo sapiens, read-out: IC50 anti-proliferative
[7] = tested on: NUGC-4; test: Cell proliferation assay (CellTiter-Glo, 72 hours); assay type: cell-based; conditions: Homo sapiens, read-out: IC50 anti-proliferative
[8] = tested on: NUGC3; test: Cell proliferation assay (CellTiter-Glo, 72 hours); assay type: cell-based; conditions: Homo sapiens, NUGC-3, read-out: IC50 anti-proliferative
Description: as §5

[9] = tested on: gastric tumor cell lines with high MET mRNA levels; test: cells; conditions: Homo sapiens, read-out: average IC50 value
Description: (§1) These cell lines were obtained from American Type Culture Collection (ATCC), Japanese Collection of Research Bioresources (JCRB), Shanghai Institutes of Biological Sciences, CAS (SIBS), Korean Cell Line Bank (KCLB) or National Institutes of Health (NIH). […] Cell viability was measured after 72 hours using a CellTiter-Glo Luminescent Cell Viability Assay Kit (Promega, WI, USA) according to the manufacturer’s instructions.
(§2) The MET mRNA expression level in each human gastric cell lines was evaluated with real-time PCR. Glyceraldehyde-3-phosphate dehydrogenase (GAPDH) was considered as the internal control. The amplification was performed in a 20 μl mixture containing 10 μl of TaqMan Universal PCR Master Mix (Invitrogen, CA, USA) with UNG, 1 μl of the MET (Hs01565584_m1) or GAPDH (Hs02786624_g1) TaqMan Gene Expression Assay (Thermo, CA, USA), and 5 μl of cDNA solution. Each sample was analyzed in triplicate on an Agilent Technologies Stratagenes Mx3005P (CA, USA). Relative MET mRNA expression is presented as the fold-change, which was calculated using the 2^ (-ΔΔCt) method.

[10] = tested on: gastric tumor cell lines with low MET mRNA levels; test: cells; conditions: Homo sapiens, read-out: average IC50 value
Description: as §1, §2

[11] = tested on: AKT phosphorylation; test: Western blot of signaling molecules in SNU-5 cells; assay type: cell-based, human
Source text: (§3) The SNU-5 cell line was selected for western blotting analysis of signaling molecules. […] Immunoreactive proteins (p-AXL, t-ERK and p-ERK) were visualized using the ECL system (Pierce Chemical, TX, USA). Other proteins were detected by Odyssey (LI-COR, NE, USA) at a wavelength of 700 nm or 800 nm. […] Tumor lysates were subjected to western blotting. The following antibodies were purchased from Cell Signaling Technology (Cell Signaling Technology Cat#3148, RRID : AB_1031042): anti-MET (Cell Signaling Technology Cat# 3148, RRID : AB_1031042), anti-p-MET Y1234/1235 (Antibodies-Online Cat# ABIN461461, RRID : AB_10786128), anti-AXL (Cell Signaling Technology Cat# 4566, RRID : AB_2062563), anti-p-AXL Y702 (5724S), anti-ERK (9107S), anti-p-ERK Thr202/Tyr204 (4370S), anti-p-AKT Ser473 (4060S), and anti-AKT (Cell Signaling Technology Cat# 2920, RRID : AB_1147620).

[12] = tested on: AXL phosphorylation; test: Western blot of signaling molecules in SNU-5 cells; assay type: cell-based, human
Source text: as §3

[13] = tested on: ERK phosphorylation; test: Western blot of signaling molecules in SNU-5 cells; assay type: cell-based, human
Source text: as §3

[14] = tested on: MET phosphorylation; test: Western blot of signaling molecules in SNU-5 cells; assay type: cell-based, human
Source text: as §3

[15] = tested on: phosphorylation of MET; test: Western blot of tumor lysates from GA3121 PDX model; assay type: in vivo, immunodeficient mice; conditions: 20 mg/kg, 21 days
Source text: as §3
Human tumor xenografts were established in female BALB/cA nude mice (5-6 weeks old) by administering the SNU-5 and MKN-45 cells, which have high MET expression levels. […] The subcutaneous tumor size and body weight were measured twice weekly. The tumor volumes were determined by measuring two perpendicular diameters with calipers and calculated as (length × width^2)/2.

[16] = biological target: VEGFR2 (Homo sapiens, UniProt P35968); test: Cellular kinase phosphorylation assay (sandwich ELISA), HUVECs, VEGF-A stimulated; assay type: cell-based; parameters: endogenous in cells; host or cells: HUVEC
Description: Phosphorylation of the receptors MET, AXL, VEGFR2, and FLT3 was assessed in the transgenic human MKN45 gastric tumor cell line overexpressing MET, mouse embryonic fibroblasts (MEFs) expressing full-length human AXL (AXL-MEFs), human umbilical vein endothelial cells (HUVECs) […], and MEFs expressing full-length human FLT3 (FLT3-wt-MEFs), respectively. […] Then, HUVECs and FLT3-wt-MEFs were stimulated with the ligands VEGF-A (100 ng/ml, for 3 min) and FLT3-ligand (50 ng/ml, for 5 min). MKN45 (overexpressing MET) and AXL-MEFs cells had no stimulation. Cells treated with staurosporine (AXL, FLT3-wt, c-Kit, FLT3, TIE2, VEGF-R2; [1,0E-05 M]) or BMS777607 (MET; [1,0E-06 M]) or sunitinib (VEGF-R3; [1,0E-06 M]) or crizotinib (RON; [1,0E-05 M] were defined as low control (n = 8). The median value of those wells represented the background and was set to 0%. Cells treated with solvent alone were defined as high control (n = 8). The median value of those wells was set to 100%. Test sample-treated cells as well as high and low control were stimulated in identical manner. Quantification of receptor tyrosine kinase autophosphorylation was assessed in 96-well plates via sandwich ELISA using a receptor specific capture antibody and an anti-phosphotyrosine detection antibody. […]

Chain of VEGFR2 (P35968 20-1356): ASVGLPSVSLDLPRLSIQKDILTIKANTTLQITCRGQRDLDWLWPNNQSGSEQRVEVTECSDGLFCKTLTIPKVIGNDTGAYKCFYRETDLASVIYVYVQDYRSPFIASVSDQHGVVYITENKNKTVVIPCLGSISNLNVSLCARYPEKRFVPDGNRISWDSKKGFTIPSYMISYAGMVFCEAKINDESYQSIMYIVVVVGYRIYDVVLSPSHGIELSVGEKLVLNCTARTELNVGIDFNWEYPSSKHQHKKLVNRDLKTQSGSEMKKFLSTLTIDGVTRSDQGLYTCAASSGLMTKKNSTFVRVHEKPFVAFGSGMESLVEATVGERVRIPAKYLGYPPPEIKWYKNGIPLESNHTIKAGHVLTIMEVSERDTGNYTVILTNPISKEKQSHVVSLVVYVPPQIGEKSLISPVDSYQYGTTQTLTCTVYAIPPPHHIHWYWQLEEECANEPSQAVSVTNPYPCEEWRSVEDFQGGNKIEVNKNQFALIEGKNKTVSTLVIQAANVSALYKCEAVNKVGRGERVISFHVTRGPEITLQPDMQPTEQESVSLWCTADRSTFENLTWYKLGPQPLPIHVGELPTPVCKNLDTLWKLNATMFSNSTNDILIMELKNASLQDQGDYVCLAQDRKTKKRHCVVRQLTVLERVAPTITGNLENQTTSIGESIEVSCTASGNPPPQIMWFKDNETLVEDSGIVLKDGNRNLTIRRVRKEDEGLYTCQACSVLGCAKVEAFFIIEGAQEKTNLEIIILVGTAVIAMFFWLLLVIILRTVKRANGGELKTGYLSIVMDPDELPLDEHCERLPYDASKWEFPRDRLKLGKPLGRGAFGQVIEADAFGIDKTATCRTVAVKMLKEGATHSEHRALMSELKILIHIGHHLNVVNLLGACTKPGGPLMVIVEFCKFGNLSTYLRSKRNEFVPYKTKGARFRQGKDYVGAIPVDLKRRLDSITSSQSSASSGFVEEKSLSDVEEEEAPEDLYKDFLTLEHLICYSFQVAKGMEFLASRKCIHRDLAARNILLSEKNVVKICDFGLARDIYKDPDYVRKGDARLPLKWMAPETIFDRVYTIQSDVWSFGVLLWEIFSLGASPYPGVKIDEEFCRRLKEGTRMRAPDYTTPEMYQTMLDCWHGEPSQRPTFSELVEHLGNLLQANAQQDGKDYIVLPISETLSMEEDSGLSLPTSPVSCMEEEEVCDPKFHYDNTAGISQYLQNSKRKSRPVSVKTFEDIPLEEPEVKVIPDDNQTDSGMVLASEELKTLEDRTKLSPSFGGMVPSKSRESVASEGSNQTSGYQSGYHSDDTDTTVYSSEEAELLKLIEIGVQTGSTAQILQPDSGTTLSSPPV
Chain of ITK (Q08881 whole entry): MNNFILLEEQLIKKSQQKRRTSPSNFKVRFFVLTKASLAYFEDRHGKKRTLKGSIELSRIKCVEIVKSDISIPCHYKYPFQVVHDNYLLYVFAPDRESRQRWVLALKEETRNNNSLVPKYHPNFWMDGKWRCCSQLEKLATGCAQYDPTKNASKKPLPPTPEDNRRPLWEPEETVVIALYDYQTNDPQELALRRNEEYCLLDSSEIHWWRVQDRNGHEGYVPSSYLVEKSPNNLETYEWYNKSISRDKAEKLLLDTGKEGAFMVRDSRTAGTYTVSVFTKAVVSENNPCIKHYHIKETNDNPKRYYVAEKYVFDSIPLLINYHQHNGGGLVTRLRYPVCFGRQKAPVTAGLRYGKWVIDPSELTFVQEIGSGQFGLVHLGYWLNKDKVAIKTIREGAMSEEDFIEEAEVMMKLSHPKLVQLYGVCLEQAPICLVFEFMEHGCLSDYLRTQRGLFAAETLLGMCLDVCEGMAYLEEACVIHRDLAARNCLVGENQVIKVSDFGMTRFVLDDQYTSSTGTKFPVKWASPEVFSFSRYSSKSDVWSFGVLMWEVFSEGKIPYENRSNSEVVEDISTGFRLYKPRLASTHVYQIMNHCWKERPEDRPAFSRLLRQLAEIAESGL
Chain of C-KIT (P10721 26-976): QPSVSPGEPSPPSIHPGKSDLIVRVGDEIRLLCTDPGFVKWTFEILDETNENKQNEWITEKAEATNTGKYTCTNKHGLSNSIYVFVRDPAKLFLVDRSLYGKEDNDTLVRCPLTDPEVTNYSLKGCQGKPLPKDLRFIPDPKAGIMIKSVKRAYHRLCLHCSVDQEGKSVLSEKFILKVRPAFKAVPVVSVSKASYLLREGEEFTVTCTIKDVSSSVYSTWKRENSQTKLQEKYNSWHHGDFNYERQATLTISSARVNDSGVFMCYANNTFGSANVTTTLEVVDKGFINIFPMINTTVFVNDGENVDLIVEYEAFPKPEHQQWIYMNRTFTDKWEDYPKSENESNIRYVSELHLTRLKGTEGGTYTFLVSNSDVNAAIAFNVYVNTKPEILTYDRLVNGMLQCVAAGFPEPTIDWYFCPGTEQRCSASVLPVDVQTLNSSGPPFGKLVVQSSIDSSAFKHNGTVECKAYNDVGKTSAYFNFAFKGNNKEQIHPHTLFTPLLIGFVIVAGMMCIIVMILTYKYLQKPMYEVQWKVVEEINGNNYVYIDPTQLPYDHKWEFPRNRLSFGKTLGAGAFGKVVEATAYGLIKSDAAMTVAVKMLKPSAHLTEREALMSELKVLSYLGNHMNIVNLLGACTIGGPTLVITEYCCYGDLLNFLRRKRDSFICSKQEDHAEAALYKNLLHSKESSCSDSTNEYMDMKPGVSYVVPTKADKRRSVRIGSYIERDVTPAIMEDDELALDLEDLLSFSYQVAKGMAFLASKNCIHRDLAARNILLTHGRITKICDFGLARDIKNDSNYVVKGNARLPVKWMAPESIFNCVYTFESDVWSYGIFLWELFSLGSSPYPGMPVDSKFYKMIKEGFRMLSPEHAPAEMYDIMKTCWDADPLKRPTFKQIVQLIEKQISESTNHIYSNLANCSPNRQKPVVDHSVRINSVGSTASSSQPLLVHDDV
Chain of Fes (P07332 whole entry): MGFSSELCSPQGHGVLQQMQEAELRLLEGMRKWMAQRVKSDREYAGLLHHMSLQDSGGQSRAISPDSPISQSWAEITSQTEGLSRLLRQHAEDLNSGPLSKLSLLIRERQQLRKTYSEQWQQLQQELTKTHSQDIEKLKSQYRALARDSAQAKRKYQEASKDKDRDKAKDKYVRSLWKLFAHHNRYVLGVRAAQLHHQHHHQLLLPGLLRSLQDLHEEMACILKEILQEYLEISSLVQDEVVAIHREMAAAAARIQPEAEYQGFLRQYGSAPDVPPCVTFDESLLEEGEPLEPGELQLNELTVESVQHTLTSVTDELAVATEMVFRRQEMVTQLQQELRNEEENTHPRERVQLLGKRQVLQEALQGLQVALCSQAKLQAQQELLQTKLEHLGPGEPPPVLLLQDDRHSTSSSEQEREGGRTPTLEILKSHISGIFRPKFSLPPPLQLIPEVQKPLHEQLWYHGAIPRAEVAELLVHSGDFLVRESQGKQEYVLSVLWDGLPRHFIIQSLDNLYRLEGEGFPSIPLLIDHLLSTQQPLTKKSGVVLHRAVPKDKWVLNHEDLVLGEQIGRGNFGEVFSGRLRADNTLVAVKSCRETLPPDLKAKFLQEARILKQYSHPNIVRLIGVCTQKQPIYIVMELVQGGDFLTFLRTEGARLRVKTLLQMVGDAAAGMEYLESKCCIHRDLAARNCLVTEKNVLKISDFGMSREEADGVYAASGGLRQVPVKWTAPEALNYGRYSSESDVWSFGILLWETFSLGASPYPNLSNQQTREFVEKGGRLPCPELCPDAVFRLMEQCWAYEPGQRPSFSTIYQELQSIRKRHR

Question: Which results are given for `Cc1c(C(=O)Nc2ccc(Oc3ccnc4cc(OCC(C)(C)O)ccc34)c(F)c2)c(=O)n(-c2ccccc2)n1C` [CT053]?
Answer: IC50 [1]: 960 nM; IC50 [2]: 240 nM; IC50 [3]: 48 nM; IC50 ([4]; read-out: IC50, percentage area of tube formation (+ HGF)): 310 nM; IC90 ([4]; read-out: IC90, Tube Area % Effect (+ HGF)): > 3000 nM; IC50 [5]: > 10000 nM; IC50 [6]: > 10000 nM; IC50 [7]: > 10000 nM; IC50 [8]: > 10000 nM; IC50 [9]: 95 nM; IC50 [10]: > 10000 nM; suppression of induced AKT activity [11]: a much higher concentration of CT053 was required; concentration that completely suppressed AXL phosphorylation [12]: 100 nM; concentration that completely suppressed phosphorylation of ERK [13]: 1000 nM; concentration that completely suppressed phosphorylation of MET [14]: 1000 nM; phosphorylation of MET in tumors vs vehicle [15]: significantly inhibited; IC50 ([16]; HUVECs, VEGF-A 100 ng/ml, read-out: IC50, phosphorylation of VEGFR2): 1.1 nM; IC50 ([16]; printed in Figure 1E, read-out: phospho-VEGF-R2: IC50): 1.1 nM
